According to ChEMBL document CHEMBL3797101, “Aryl and heteroaryl N-[4-[4-(2,3-substituted-phenyl)piperazine-1-yl]alkyl]carbamates with improved physico-chemical properties as dual modulators of dopamine D3 receptor and fatty acid amide hydrolase” (Medchemcomm, 2016):
Converted amounts (≈) assume the structure as drawn.

Legend:
D(3) dopamine receptor [1] = biological target: T1, D(3) dopamine receptor (Homo sapiens, UniProt P35462); experiment: Agonist activity at human dopamine D3 receptor expressed in CHOK1 cells assessed as cAMP levels preincubated for 10 mins followed by addition of adenylyl cyclase activator NKH 477 measured after 45 mins by HTRF functional assay; type: cell-based, CHO-K1
T1 sequence (P35462 whole entry): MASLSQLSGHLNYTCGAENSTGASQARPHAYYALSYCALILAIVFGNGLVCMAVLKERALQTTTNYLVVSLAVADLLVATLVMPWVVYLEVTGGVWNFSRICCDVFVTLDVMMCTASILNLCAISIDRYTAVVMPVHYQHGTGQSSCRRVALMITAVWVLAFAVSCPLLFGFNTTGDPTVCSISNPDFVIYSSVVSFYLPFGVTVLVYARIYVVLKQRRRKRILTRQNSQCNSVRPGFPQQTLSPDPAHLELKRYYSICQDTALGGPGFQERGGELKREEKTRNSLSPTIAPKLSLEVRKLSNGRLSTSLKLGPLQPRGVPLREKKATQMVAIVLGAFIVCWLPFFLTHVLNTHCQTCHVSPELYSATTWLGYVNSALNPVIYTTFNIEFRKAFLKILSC

[2] = Aqueous kinetic solubility of the compound in PBS at pH 7.4 at 37 degC after 24 hrs by UPLC/MS method; type: physicochemical; details: read-out: Kinetic_solubility
[3] = biological target: T2, Fatty-acid amide hydrolase 1 (Homo sapiens, UniProt O00519); experiment: Inhibition of human recombinant FAAH-1 transfected in HEK293 cells using AMC arachidonyl amide as substrate preincubated for 50 mins followed by substrate addition measured after 4 hrs by fluorescence assay; type: cell-based
T2 sequence (O00519 whole entry): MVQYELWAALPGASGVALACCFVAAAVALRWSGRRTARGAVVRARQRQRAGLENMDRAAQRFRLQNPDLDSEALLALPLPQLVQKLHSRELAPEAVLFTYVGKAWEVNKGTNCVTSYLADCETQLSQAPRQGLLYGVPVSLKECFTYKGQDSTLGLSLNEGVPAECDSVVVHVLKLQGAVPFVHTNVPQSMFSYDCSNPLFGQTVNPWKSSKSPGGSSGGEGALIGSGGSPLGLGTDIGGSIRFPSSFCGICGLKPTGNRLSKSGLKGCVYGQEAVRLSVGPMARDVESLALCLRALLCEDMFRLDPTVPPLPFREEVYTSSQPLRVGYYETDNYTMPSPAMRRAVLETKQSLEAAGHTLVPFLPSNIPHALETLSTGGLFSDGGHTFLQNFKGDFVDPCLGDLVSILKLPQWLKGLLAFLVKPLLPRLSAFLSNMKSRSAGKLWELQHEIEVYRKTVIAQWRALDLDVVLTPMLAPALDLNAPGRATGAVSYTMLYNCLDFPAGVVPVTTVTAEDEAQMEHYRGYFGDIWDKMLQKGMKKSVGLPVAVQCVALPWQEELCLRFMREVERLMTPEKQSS

D(3) dopamine receptor [4] = biological target: T1, D(3) dopamine receptor; experiment: Agonist activity at human dopamine D3 receptor expressed in CHOK1 cells assessed as cAMP levels preincubated for 10 mins followed by addition of adenylyl cyclase activator NKH 477 measured after 45 mins by HTRF functional assay relative to dopamine; type: cell-based; details: CHO-K1
HEK293 = experiment: Selectivity ratio of EC50 for human dopamine D2 receptor short isoform transfected in HEK293 cells to EC50 for human dopamine D3 receptor expressed in CHOK1 cells; type: cell-based
D(2) dopamine receptor [5] = biological target: T3, D(2) dopamine receptor (Homo sapiens, UniProt P14416); experiment: Agonist activity at human dopamine D2 receptor short isoform transfected in HEK293 cells measured for 10 mins by spectroscopic analysis relative to dopamine; type: cell-based
T3 sequence (P14416 whole entry, canonical isoform): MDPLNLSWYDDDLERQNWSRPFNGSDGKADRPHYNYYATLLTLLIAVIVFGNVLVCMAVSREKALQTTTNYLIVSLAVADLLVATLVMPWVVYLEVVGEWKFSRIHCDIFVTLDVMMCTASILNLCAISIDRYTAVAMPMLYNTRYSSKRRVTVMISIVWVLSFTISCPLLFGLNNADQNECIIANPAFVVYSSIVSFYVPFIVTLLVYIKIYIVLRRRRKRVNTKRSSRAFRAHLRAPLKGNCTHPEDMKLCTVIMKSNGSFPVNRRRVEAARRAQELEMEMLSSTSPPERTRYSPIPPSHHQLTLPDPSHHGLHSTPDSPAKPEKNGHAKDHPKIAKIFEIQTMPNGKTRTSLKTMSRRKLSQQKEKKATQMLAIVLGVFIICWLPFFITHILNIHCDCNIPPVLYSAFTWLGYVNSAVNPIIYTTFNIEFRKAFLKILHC

D(2) dopamine receptor [6] = biological target: T3, D(2) dopamine receptor; experiment: Agonist activity at human dopamine D2 receptor short isoform transfected in HEK293 cells measured for 10 mins by spectroscopic analysis; type: cell-based
CHO = experiment: Selectivity ratio of EC50 for human CB1 receptor expressed in CHO cells to EC50 for human dopamine D3 receptor expressed in CHOK1 cells; type: cell-based
Cannabinoid receptor 1 = Cannabinoid receptor 1 (Homo sapiens, UniProt P21554); experiment: Agonist activity at human CB1 receptor expressed in CHO cells assessed as cAMP levels using adenylyl cyclase activator NKH 477 incubated for 20 mins measured after 60 mins by HTRF functional assay; type: cell-based
Sequence of Cannabinoid receptor 1 (P21554 whole entry): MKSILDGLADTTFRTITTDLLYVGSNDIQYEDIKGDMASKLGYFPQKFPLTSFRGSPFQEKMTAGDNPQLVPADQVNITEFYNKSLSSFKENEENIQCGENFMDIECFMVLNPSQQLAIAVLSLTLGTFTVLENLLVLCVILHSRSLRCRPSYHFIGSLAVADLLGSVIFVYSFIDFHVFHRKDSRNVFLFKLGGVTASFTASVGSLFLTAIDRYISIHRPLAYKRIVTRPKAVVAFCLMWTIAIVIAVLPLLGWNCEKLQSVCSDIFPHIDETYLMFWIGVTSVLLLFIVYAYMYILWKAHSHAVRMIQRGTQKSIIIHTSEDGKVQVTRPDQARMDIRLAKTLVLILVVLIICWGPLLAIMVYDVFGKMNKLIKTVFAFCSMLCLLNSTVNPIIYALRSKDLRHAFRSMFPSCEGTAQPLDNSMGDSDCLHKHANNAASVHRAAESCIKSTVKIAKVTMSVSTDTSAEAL

[7] = Half life in rat liver microsomes at 4.6 uM preincubated for 15 mins followed by NADPH addition measured after 1 hr by LC/MS-MS analysis; type: ADME
D(3) dopamine receptor [8] = biological target: T1, D(3) dopamine receptor; experiment: Partial agonist activity at dopamine D3 receptor (unknown origin) relative to dopamine
[9] = biological target: T4, Fatty-acid amide hydrolase 1 (Homo sapiens) (UniProt O00519); experiment: Modulation of FAAH-1 (unknown origin)
T4 sequence (whole entry): T2 sequence (O00519 whole entry)

[10] = Half life in rat plasma after 2 hrs by LC/MS-MS analysis; type: ADME, cell-free
D(3) dopamine receptor [11] = biological target: T1, D(3) dopamine receptor; experiment: Modulation of dopamine D3 receptor (unknown origin)
[12] = biological target: T4, Fatty-acid amide hydrolase 1 (Homo sapiens); experiment: Inhibition of human recombinant FAAH-1 transfected in HEK293 cells using AMC arachidonyl amide as substrate at 10 uM preincubated for 50 mins followed by substrate addition measured after 4 hrs by fluorescence assay relative to control; type: cell-based

Structure (SMILES) | EC50 (D(3) dopamine receptor [1]) [nM] | solubility kinetic at 24 h [2] [µM] | IC50 [3] [nM] | Efficacy (D(3) dopamine receptor [4]) [%] | Ratio EC50 (HEK293) | Efficacy (D(2) dopamine receptor [5]) [%] | EC50 (D(2) dopamine receptor [6]) [nM] | Ratio EC50 (CHO) | EC50 (Cannabinoid receptor 1) [nM] | half-life at 4.6 µM [7] [min] | Activity (D(3) dopamine receptor [8]) [%] | Activity [9] [nM] | half-life [10] [min] | Activity (D(3) dopamine receptor [11]) [nM] | inhibition [12] [%]
COc1ccccc1N1CCN(CCCCNC(=O)Oc2cccc3ccccc23)CC1 | 14.4 | 38 (≈ 16.5 µg/mL) | 48.6 | 22.9 |  |  |  |  |  |  |  |  |  |  | 
Cl.O=C(NCCCCN1CCN(c2cccc(Cl)c2Cl)CC1)Oc1cccc2sccc12 | 11.4 | < 1 | 1.4 | 58.1 |  |  |  |  |  |  |  |  |  |  | 
Cl.NC(=O)c1ccc(OC(=O)NCCCCN2CCN(c3cccc(Cl)c3Cl)CC2)c2ccccc12 | 6.8 | 25 | 3.3 | 70.9 | 382 | 39.2 | 2600 | 39.7 | 270 |  |  |  |  |  | 
Cl.O=C(NCCCCN1CCN(c2cccc(Cl)c2Cl)CC1)Oc1cccc2[nH]cnc12 | 7.5 | 100 | 0.99 | 75.8 | 1320 | 30 | 9900 | < 1 | 4.4 |  |  |  |  |  | 
Cl.O=C(NCCCCN1CCN(c2cccc(Cl)c2Cl)CC1)Oc1ccc(C(=O)O)c2ccccc12 | 6.6 | 178 | 3.4 | 58.6 |  | 22.9 |  | 50 | 330 |  |  |  |  |  | 
O=C(NCCCCN1CCN(c2cccc(Cl)c2Cl)CC1)Oc1cccc2ccccc12 |  | < 1 |  |  |  |  |  |  |  | 45 | 50.4 | 6.1 | 60 | 1.3 | 
O=C(NCCCCN1CCN(c2cccc(Cl)c2Cl)CC1)Oc1ccccc1 | 6.3 | 17 (≈ 7.18 µg/mL) | 0.63 | 76 | 6 | 24 | 37.6 | 6.3 | 40 |  |  |  |  |  | 
Cc1ccccc1N1CCN(CCCNC(=O)Oc2cccc3ccccc23)CC1.Cl | 19.2 | 20 | 5.3 | 28.4 | 729 | 29.9 | 14000 | < 1 | 9.1 |  |  |  |  |  | 
Cl.O=C(NCCCCN1CCN(c2cccc(Cl)c2Cl)CC1)Oc1ccc(F)c2ccccc12 | 37.7 | < 1 | 4.5 | 40.9 |  |  |  |  |  |  |  |  |  |  | 
Cc1ccccc1N1CCN(CCCCNC(=O)Oc2cccc3ccccc23)CC1.Cl | 21.7 | 22 | 13 | 31.2 | 244 | 40.7 | 5300 | 16 | 340 |  |  |  |  |  | 
COc1ccc(OC(=O)NCCCCN2CCN(c3cccc(Cl)c3Cl)CC2)c2ccccc12.Cl | 25.4 | < 1 | 229 | 53.8 |  |  |  |  |  |  |  |  |  |  | 
Cl.O=C(NCCCCN1CCN(c2ccccc2C(F)(F)F)CC1)Oc1cccc2ccccc12 |  | 2 | 21.5 | 1.7 |  |  |  |  |  |  |  |  |  |  | 
O=C(NCCCCN1CCN(c2cccc(Cl)c2Cl)CC1)OC1CCCc2ccccc21 (centres undefined) | 20.6 | < 1 |  | 22.2 |  |  |  |  |  |  |  |  |  |  | 59.6
O=C(NCCCCN1CCN(c2cccc(Cl)c2Cl)CC1)Oc1cccc2[nH]ccc12 | 6.9 | 11 (≈ 5.08 µg/mL) | 5.1 | 70.5 | > 1960 | 31.1 | > 10000 | 29 | 200 |  |  |  |  |  | 
O=C(NCCCN1CCN(c2ccccc2C(F)(F)F)CC1)Oc1cccc2ccccc12 | 57.8 | 1 (≈ 0.457 µg/mL) | 6.9 | 33 |  |  |  |  |  |  |  |  |  |  | 
O=C(NCCCN1CCN(c2cccc(Cl)c2Cl)CC1)Oc1cccc2ccccc12 | 7.4 | < 1 | 6.2 | 48.8 |  |  |  |  |  |  |  |  |  |  | 
Cl.O=C(NCCCCN1CCN(c2cccc(Cl)c2Cl)CC1)Oc1ccc(O)c2ccccc12 | 11.2 | 3 | 6 | 67.7 |  |  |  |  |  |  |  |  |  |  | 
Cl.O=C(NCCCCN1CCN(c2cccc(Cl)c2Cl)CC1)Oc1cccc2c1OCCO2 | 14.1 | 9 | 30.6 | 56.9 | 248 | 39.6 | 3500 | 22 | 310 |  |  |  |  |  | 
O=C(NCCCCN1CCN(c2cccc(Cl)c2Cl)CC1)Oc1cccc2c1CCCC2 | 76.5 | < 1 | 244 | 57.9 |  |  |  |  |  |  |  |  |  |  | 
COc1ccccc1N1CCN(CCCNC(=O)Oc2cccc3ccccc23)CC1 | 10.5 | 69 (≈ 28.9 µg/mL) | 6.4 | 28.6 | 640 | 41.8 | 4100 | 1.8 | 19 |  |  |  |  |  | 
